Laboratory results: patent US8030543B2, “Efficient transformation method for sunflower and oil seeds based on positive selection” (Avesthagen Limited, priority 2006, dated 2011)

Experiments:
[1] = system: sunflower CMS234B SEA explants; test: Screening for capability to utilize xylose as carbon source (untransformed SEA explants); format: cell-based, Helianthus annuus; details: MS medium with 0.5 mg/l BAP, 3% Xylose as carbon source
Procedure: In order to determine if sunflower is capable of using xylose as the carbon source, explants were cultured on regeneration media containing sucrose and xylose respectively.

[2] = system: Helianthus annuus CMS234B split embryonic axis (SEA) explants; test: Positive selection and regeneration of sunflower SEA explants transformed with pCAMBIA-XI on media containing Xylose; format: cell-based; details: for No of PCR +ve explants / No. of explants Regenerating into shootlets / No. of explants surviving I selection (15 days) / No. of explants surviving I selection (21 days) / No. of explants surviving II selection (15 days) / PCR +ve Regenerants: 100 explants infected, pCAMBIA-XI
Procedure: The seeds were sterilized and the split embryonic axis isolated as described earlier. […] Agrobacterium cells from the glycerol stock were grown overnight in Luria-Bertani (LB) medium containing Rifampicin (10 μg/ml), Gentamycin (10 μg/ml) and Kanamycin (50 μg/ml) and grown exponentially for a period of 4-6 hrs to reach O.D600=1.0. The cells were centrifuged at 6000 rpm for 5 min at 4° C. and then washed and resuspended in MS liquid to reach an O.D600 of 1.0. The excised explants were immediately transferred to a vacuum infiltration flask containing 25 ml of the resuspended culture. Vacuum at 200 atm pressure for 15 min was applied and quickly released. The culture was then drained off completely and explants collected on a blotting paper. […] After two days of co-cultivation, the explants were washed thoroughly with Murashige and Skoog (1972) liquid medium containing Cefotaxime 250 mg/l. […] After the selection period the shoots were subcultured onto Elongation medium containing ½ Strength MS medium. […] The explants surviving first selection were transferred for a second selection to the same medium for 21 days. Explants were subsequently transferred to their respective elongation media. Healthy shootlets were transferred to their respective rooting media.

O=C[C@H](O)[C@@H](O)[C@H](O)CO [Xylose, D-Xylose]
time within which explants brown and die [1]: 2-3 weeks
No of PCR +ve explants ([2]; Xylose Conc. 15 (mg/l)): 28
No. of explants Regenerating into shootlets ([2]; Xylose Conc. 15 (mg/l)): 20
No. of explants surviving I selection (15 days) ([2]; Xylose Conc. 15 (mg/l)): 80
No. of explants surviving I selection (21 days) ([2]; Xylose Conc. 15 (mg/l)): 70
No. of explants surviving II selection (15 days) ([2]; Xylose Conc. 15 (mg/l)): 60
PCR +ve Regenerants ([2]; Xylose Conc. 15 (mg/l)): 10
No of PCR +ve explants ([2]; Xylose Conc. 20 (mg/l)): 30
No. of explants Regenerating into shootlets ([2]; Xylose Conc. 20 (mg/l)): 12
No. of explants surviving I selection (15 days) ([2]; Xylose Conc. 20 (mg/l)): 72
No. of explants surviving I selection (21 days) ([2]; Xylose Conc. 20 (mg/l)): 65
No. of explants surviving II selection (15 days) ([2]; Xylose Conc. 20 (mg/l)): 57
PCR +ve Regenerants ([2]; Xylose Conc. 20 (mg/l)): 7
No of PCR +ve explants ([2]; Xylose Conc. 25 (mg/l)): 28
No. of explants Regenerating into shootlets ([2]; Xylose Conc. 25 (mg/l)): 7
No. of explants surviving I selection (15 days) ([2]; Xylose Conc. 25 (mg/l)): 65
No. of explants surviving I selection (21 days) ([2]; Xylose Conc. 25 (mg/l)): 55
No. of explants surviving II selection (15 days) ([2]; Xylose Conc. 25 (mg/l)): 40
PCR +ve Regenerants ([2]; Xylose Conc. 25 (mg/l)): 6
No of PCR +ve explants ([2]; Xylose Conc. 30 (mg/l)): 18
No. of explants Regenerating into shootlets ([2]; Xylose Conc. 30 (mg/l)): 5
No. of explants surviving I selection (15 days) ([2]; Xylose Conc. 30 (mg/l)): 50
No. of explants surviving I selection (21 days) ([2]; Xylose Conc. 30 (mg/l)): 38
No. of explants surviving II selection (15 days) ([2]; Xylose Conc. 30 (mg/l)): 20
PCR +ve Regenerants ([2]; Xylose Conc. 30 (mg/l)): 5
green tissue of plantlets ([2]; plantlets grown on D-Xylose medium, compared to plantlets grown on Hygromycin): 90%
healthy shoots per explants ([2]; positive selection on Xylose): 2-3
